The text below walks through data of ChEMBL document CHEMBL3991601, “The target landscape of clinical kinase drugs” (Science, 2017).

Activity calls are given as the source filed them.

Assay [1] addresses T1, Dual specificity mitogen-activated protein kinase kinase 5 (Homo sapiens, UniProt Q13163).
T1 sequence (Q13163 whole entry): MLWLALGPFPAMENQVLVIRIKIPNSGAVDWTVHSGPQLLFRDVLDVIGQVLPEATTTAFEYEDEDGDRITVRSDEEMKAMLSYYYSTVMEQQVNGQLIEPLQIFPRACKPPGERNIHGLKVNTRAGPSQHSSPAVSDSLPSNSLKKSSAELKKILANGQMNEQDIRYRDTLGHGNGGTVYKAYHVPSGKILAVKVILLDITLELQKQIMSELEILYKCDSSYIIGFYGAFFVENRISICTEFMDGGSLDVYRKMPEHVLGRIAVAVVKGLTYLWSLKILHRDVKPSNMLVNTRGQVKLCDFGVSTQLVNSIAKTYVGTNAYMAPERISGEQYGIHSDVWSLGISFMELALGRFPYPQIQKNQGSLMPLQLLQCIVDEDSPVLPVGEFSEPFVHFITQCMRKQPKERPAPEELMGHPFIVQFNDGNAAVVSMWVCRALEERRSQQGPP

Assay [2] addresses T2, Dynamin-like GTPase OPA1, mitochondrial (Homo sapiens, UniProt O60313).
T2 sequence (O60313 whole entry): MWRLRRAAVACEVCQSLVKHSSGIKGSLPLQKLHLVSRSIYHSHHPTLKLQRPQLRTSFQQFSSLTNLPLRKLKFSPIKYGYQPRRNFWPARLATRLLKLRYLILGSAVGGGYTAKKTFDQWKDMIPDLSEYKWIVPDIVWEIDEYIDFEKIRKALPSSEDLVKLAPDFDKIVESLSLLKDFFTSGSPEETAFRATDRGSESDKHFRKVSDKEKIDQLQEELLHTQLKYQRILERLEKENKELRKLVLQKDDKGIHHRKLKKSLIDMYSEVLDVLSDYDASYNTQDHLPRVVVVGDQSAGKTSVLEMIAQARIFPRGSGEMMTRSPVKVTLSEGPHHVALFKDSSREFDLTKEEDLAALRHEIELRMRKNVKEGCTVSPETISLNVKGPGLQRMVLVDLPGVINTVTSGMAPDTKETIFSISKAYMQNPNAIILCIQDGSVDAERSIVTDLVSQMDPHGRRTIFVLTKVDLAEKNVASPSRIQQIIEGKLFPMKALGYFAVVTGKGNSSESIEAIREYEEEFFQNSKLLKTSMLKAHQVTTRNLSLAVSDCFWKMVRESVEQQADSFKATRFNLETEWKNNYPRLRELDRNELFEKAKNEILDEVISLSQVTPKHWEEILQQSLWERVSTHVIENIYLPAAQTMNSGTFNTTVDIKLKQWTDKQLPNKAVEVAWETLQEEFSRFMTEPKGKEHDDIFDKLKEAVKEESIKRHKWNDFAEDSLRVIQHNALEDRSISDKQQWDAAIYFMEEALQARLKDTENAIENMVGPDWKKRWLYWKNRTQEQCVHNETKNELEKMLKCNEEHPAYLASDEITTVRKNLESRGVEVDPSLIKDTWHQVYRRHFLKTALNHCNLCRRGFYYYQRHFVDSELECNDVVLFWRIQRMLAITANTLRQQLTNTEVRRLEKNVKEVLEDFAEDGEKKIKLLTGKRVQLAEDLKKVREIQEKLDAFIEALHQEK

Assay [3] deals with Mitogen-activated protein kinase 1 (Homo sapiens, UniProt P28482).
Sequence of Mitogen-activated protein kinase 1 (P28482 whole entry): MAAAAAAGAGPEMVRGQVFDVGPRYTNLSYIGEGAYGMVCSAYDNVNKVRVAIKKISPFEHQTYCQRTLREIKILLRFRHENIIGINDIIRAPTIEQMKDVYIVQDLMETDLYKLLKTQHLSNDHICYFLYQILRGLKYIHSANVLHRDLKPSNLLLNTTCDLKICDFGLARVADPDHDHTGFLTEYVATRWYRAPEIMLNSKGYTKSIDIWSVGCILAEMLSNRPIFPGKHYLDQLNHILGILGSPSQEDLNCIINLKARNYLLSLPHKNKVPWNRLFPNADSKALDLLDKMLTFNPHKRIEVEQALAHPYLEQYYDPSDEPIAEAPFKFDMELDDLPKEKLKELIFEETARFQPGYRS
Assay [4] concerns the target U5 small nuclear ribonucleoprotein 200 kDa helicase (Homo sapiens, UniProt O75643).
The next assay deals with T3, Rab-like protein 3 (Homo sapiens, UniProt Q5HYI8).
T3 sequence (Q5HYI8 whole entry): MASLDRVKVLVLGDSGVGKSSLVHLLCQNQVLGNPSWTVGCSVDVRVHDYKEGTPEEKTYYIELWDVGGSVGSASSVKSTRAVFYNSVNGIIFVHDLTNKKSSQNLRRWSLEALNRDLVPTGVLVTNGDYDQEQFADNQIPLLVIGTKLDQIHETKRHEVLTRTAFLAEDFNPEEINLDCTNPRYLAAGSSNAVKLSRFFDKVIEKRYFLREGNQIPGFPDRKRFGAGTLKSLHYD

Assay [5] has as its target Ribosomal protein S6 kinase beta-1 (Homo sapiens, UniProt P23443).
The target in a further assay is Activin receptor type-2B (Homo sapiens, UniProt Q13705).
Sequence of Activin receptor type-2B (Q13705 whole entry): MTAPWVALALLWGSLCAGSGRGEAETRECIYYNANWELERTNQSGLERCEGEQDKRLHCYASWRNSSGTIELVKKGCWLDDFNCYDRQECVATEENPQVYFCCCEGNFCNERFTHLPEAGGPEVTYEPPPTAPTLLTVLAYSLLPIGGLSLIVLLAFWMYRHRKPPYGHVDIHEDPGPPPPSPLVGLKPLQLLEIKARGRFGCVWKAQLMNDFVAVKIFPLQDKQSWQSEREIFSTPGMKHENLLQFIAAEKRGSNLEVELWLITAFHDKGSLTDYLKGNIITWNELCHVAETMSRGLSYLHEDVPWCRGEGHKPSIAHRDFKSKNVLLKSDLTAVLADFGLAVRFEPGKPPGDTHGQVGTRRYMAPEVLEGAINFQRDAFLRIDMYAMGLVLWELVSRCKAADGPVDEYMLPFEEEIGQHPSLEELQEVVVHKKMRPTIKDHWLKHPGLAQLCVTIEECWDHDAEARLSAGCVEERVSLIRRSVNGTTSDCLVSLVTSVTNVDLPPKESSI
The target of assay [6] is cAMP-dependent protein kinase catalytic subunit alpha (Homo sapiens, UniProt P17612).
Assay [7] has as its target T4, Mitogen-activated protein kinase kinase kinase kinase 2 (Homo sapiens, UniProt Q12851).
T4 sequence (Q12851 whole entry): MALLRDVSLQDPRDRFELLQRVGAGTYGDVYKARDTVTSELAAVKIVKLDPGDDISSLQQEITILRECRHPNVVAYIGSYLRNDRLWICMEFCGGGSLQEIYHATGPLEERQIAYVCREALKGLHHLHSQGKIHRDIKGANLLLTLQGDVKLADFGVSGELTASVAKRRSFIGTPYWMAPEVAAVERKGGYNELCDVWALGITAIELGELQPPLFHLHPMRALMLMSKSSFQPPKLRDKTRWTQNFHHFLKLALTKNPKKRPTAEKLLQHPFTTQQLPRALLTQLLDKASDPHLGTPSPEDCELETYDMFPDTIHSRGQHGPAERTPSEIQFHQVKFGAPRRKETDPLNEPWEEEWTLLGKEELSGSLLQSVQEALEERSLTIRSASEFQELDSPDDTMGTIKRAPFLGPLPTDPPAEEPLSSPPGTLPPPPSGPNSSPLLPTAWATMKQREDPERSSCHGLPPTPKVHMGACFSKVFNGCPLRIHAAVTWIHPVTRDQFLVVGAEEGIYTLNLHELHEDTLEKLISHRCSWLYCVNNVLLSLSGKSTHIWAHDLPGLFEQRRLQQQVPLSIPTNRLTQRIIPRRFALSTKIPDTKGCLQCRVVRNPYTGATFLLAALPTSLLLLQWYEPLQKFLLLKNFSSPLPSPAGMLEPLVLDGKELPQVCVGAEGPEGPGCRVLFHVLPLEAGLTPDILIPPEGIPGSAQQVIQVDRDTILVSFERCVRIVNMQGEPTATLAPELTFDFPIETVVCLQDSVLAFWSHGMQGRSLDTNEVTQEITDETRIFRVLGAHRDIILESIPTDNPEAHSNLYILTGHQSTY

The target of assay [8] is Eukaryotic translation initiation factor 2-alpha kinase 1 (Homo sapiens, UniProt Q9BQI3).
Sequence of Eukaryotic translation initiation factor 2-alpha kinase 1 (Q9BQI3 whole entry): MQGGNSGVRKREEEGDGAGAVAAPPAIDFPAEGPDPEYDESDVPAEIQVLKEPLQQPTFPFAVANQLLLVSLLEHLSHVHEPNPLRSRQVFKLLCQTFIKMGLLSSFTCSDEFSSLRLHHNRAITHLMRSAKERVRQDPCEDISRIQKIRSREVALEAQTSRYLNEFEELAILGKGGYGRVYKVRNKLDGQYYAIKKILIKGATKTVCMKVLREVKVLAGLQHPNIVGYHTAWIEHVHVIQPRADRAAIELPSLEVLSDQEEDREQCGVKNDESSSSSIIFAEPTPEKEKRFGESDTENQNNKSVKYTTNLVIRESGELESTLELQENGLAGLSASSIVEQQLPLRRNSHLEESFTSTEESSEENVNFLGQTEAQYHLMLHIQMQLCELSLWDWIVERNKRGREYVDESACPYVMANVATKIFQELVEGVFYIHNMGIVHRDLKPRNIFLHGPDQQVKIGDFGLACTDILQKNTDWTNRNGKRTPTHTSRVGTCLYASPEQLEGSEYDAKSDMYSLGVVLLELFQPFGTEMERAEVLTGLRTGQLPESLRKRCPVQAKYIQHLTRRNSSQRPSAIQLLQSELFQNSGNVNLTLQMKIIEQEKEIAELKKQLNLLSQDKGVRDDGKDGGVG
Further: in the data inactive means no Kd found up to 30 µM.

Sequence of Ribosomal protein S6 kinase beta-1 (P23443 whole entry): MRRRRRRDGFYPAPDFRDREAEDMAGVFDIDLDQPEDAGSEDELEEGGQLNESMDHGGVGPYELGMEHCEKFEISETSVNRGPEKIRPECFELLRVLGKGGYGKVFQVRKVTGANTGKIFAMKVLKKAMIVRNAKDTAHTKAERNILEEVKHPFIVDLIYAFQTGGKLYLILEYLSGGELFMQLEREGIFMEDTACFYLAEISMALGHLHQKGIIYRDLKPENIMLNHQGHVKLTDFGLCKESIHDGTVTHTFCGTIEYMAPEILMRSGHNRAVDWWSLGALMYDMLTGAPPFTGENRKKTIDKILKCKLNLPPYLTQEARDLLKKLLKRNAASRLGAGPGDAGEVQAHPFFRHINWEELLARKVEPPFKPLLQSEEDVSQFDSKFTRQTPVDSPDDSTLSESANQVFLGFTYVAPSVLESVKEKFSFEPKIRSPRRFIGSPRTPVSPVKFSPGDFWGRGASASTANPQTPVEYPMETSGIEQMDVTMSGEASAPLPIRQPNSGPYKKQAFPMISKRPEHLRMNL
Sequence of U5 small nuclear ribonucleoprotein 200 kDa helicase (O75643 whole entry): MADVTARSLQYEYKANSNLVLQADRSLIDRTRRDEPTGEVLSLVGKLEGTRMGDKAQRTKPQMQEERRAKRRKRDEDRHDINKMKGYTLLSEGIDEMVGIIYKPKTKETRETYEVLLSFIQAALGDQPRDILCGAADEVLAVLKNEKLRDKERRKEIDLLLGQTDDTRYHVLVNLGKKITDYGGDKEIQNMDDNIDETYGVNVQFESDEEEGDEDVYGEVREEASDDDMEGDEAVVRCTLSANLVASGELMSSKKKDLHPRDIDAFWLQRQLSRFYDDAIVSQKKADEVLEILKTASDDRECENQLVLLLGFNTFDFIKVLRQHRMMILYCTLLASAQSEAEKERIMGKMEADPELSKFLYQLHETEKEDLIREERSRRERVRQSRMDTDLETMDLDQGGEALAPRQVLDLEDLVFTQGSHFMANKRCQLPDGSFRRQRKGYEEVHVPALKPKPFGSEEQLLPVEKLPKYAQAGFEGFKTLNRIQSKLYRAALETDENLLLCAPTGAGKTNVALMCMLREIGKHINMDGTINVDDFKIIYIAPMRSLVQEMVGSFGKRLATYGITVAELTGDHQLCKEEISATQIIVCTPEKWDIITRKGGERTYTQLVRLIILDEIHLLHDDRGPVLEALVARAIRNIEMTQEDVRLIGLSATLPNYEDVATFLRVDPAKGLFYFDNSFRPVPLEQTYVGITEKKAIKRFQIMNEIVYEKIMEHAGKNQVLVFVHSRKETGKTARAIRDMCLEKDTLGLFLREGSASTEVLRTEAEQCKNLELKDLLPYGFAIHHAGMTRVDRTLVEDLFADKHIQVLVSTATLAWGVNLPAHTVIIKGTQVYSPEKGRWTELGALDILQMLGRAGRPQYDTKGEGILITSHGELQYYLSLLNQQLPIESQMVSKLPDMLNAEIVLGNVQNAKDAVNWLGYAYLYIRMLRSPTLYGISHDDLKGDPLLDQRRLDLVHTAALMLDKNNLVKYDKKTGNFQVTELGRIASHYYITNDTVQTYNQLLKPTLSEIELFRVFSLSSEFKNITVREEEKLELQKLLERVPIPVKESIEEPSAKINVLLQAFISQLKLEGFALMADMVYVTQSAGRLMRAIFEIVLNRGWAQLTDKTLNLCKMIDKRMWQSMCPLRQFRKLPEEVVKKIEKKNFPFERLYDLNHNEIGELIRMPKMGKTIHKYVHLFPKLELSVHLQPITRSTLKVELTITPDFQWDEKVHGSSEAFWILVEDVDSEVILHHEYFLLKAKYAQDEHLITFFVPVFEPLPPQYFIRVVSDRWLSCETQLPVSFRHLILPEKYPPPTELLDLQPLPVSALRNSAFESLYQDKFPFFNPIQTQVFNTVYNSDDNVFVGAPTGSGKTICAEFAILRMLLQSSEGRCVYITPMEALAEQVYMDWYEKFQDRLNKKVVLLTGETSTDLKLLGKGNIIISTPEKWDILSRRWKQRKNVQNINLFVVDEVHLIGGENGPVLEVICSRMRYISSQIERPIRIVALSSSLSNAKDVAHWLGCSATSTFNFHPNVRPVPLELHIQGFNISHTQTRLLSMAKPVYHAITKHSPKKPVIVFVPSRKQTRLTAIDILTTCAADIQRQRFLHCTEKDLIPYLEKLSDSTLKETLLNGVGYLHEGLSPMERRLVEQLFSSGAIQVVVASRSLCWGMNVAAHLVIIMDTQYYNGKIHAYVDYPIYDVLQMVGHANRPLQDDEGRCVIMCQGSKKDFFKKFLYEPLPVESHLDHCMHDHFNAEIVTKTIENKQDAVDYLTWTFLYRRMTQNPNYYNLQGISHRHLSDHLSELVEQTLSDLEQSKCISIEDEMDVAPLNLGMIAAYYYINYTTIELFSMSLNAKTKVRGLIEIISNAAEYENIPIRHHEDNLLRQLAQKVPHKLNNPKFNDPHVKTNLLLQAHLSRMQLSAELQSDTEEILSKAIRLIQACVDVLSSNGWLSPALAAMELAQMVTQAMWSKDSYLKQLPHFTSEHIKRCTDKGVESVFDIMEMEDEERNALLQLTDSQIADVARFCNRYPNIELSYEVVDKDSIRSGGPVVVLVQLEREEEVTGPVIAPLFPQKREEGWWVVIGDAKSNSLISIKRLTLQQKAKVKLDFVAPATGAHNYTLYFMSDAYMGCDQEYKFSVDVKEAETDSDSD

A word on the Kd: it is the constant that tells how readily two partners part at equilibrium. With `Cc1ccc(NC(=O)c2ccc(CN3CC[C@H](N(C)C)C3)c(C(F)(F)F)c2)cc1Nc1nccc(-c2cncnc2)n1` [BAFETINIB], the Kd in [1] is 11.4 µM (active); in assay [2], > 30 µM (inactive); in [3] it was > 30 µM (inactive); in assay [4] it was > 30 µM (inactive); at Rab-like protein 3 it was > 30 µM (inactive); in assay [5], > 30 µM (inactive). Further, the Kd (on Activin receptor type-2B; in assay [6]; in assay [7]; in assay [8]) was > 30 µM (inactive) in each case.
With `Cc1ccc(-n2nc(C(C)(C)C)cc2NC(=O)NCc2cc(F)ccc2Oc2ccc3c(cnn3CCO)c2)cc1` [PEXMETINIB], the Kd (in [1]; in [2]; in assay [3]; in [4]; on Rab-like protein 3; in assay [5]) was > 30 µM (inactive) each time. Further, the Kd (on Activin receptor type-2B; in assay [6]; in [7]; in assay [8]) was > 30 µM (inactive) in each case.
In the case of `CNS(=O)(=O)Nc1nccc(Cc2c(C)c3ccc(Oc4ncccn4)cc3oc2=O)c1F` [AVUTOMETINIB], the Kd is 2 µM (active) in [1]; > 30 µM (inactive) in assay [2]; > 30 µM (inactive) in [3]; > 30 µM (inactive) in assay [4]; > 30 µM (inactive) on Rab-like protein 3; > 30 µM (inactive) in [5]. The Kd (on Activin receptor type-2B; in [6]; in assay [7]; in assay [8]) was > 30 µM (inactive) each time.
On to `COc1ccc(-c2ccc3c(N4CCOC[C@@H]4C)nc(N4CCOC[C@@H]4C)nc3n2)cc1CO` [AZD-8055], for which the Kd (in assay [1]; in [2]; in assay [3]; in [4]; at Rab-like protein 3; in assay [5]) was > 30 µM (inactive) in each case. Further, the Kd (at Activin receptor type-2B; in assay [6]; in assay [7]; in [8]) was > 30 µM (inactive) in each case.
On to `C1=C/COCc2cc(ccc2OCCN2CCCC2)Nc2nccc(n2)-c2cccc(c2)COC/1` [PACRITINIB], for which the Kd (in assay [1]; in [2]; in assay [3]; in assay [4]; at Rab-like protein 3; in assay [5]) was > 30 µM (inactive) in each case. Also, the Kd on Activin receptor type-2B was > 30 µM (inactive); in [6], > 30 µM (inactive); in assay [7], 3.72 µM (active); in assay [8], > 30 µM (inactive).
Turning to `O=C(O)[C@]1(Cc2cccc(Nc3nccs3)n2)CC[C@@H](Oc2cccc(Cl)c2F)CC1` [MK-5108], the Kd (in assay [1]; in assay [2]; in assay [3]; in assay [4]; at Rab-like protein 3; in assay [5]) was > 30 µM (inactive) each time. Further, the Kd at Activin receptor type-2B is > 30 µM (inactive); in [6], > 30 µM (inactive); in assay [7] it was 1.85 µM (active); in assay [8], > 30 µM (inactive).
With `COc1cc2nccc(Oc3ccc(NC(=O)Nc4cc(C)on4)c(Cl)c3)c2cc1OC` [TIVOZANIB], the Kd (in [1]; in [2]; in [3]; in assay [4]; on Rab-like protein 3; in assay [5]) was > 30 µM (inactive) each time. The Kd on Activin receptor type-2B was > 30 µM (inactive); in assay [6] it was > 30 µM (inactive); in assay [7], 2.38 µM (active); in [8] it was > 30 µM (inactive).
`COc1cc(N2CCC(N3CCN(C)CC3)CC2)ccc1Nc1ncnc(Nc2ccccc2S(=O)(=O)C(C)C)n1` [ASP-3026]: the Kd (in [1]; in [2]; in assay [3]; in [4]; on Rab-like protein 3; in assay [5]) was > 30 µM (inactive) each time. The Kd (at Activin receptor type-2B; in assay [6]; in assay [7]; in assay [8]) was > 30 µM (inactive) throughout.
Consider `CN1CCC(CNc2ccc3ncc(-c4cccc(OC(F)(F)F)c4)n3n2)CC1` [SGI-1776], for which the Kd (in [1]; in assay [2]; in [3]; in assay [4]; on Rab-like protein 3; in [5]) was > 30 µM (inactive) in each case. Moreover, the Kd (at Activin receptor type-2B; in assay [6]; in assay [7]; in assay [8]) was > 30 µM (inactive) each time.
Turning to `CC(=O)Nc1cccc(-n2c(=O)n(C3CC3)c(=O)c3c(Nc4ccc(I)cc4F)n(C)c(=O)c(C)c32)c1` [TRAMETINIB], the Kd (in assay [1]; in [2]; in [3]; in assay [4]; at Rab-like protein 3; in assay [5]) was > 30 µM (inactive) throughout. For the same compound, the Kd (on Activin receptor type-2B; in assay [6]; in [7]; in [8]) was > 30 µM (inactive) each time.
